Molecular target: T1, Human Polθ polymerase domain (aa1820-2590) (Homo sapiens, UniProt O75417)
T1 construct: Human Polθ polymerase domain (aa1820-2590) was expressed in E. coli; made in house; host or cells: E. coli
T1 sequence (O75417 1820-2590): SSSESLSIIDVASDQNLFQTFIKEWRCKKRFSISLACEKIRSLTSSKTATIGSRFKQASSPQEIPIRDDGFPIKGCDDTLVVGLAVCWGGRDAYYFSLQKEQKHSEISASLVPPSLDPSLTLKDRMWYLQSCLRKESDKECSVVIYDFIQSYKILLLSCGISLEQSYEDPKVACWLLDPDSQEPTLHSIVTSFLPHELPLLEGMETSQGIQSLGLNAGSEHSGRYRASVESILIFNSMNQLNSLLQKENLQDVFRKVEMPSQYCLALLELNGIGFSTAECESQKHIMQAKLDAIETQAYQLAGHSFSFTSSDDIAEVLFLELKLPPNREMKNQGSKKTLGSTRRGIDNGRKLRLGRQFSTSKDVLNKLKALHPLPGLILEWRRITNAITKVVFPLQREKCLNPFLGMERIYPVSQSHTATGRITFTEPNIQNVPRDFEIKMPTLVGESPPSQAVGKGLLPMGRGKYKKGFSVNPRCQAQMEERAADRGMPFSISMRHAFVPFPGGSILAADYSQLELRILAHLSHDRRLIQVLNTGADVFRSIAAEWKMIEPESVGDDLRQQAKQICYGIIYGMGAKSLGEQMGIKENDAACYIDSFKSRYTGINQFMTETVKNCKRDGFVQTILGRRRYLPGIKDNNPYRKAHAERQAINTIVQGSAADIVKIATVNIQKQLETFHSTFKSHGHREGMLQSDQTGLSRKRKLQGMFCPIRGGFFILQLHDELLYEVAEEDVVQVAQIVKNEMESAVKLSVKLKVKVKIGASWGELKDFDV
Assay: Polθ Polymerase Domain Kinact/KI Assay (PicoGreen)
Assay type: biochemical
Conditions: 0.8 nM Polθ, 100 nM DNA substrate, kobs vs [I] fit for 2-step covalent inhibitor
Procedure, shortened: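 Covalent inhibitors were tested against E. coli-expressed enzyme (0.8 nM final) with 100 nM annealed DNA substrate and […] in Tris pH 7.5 buffer, 1% DMSO. Reactions were EDTA-quenched over a 0–60 min time course and product DNA detected by PicoGreen fluorescence.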

Row | Compound | Kinact/Kl
1 | C=CC(=O)N1Cc2nc(CN3C[C@H]4CC(=O)N(c5cc(C(F)(F)F)cc(C)n5)[C@@H]4C(=O)N(C)c4cccc(Cl)c43)n(CC)c2C1 [Example 279, (3aR,11aS)-5-((5-acryloyl-1-ethyl-1,4,5,6-tetrahydropyrrolo[3,4-d]imidazol-2-yl)methyl)-6-chloro-10-methyl-1-(6-methyl-4-(trifluoromethyl)pyridin-2-yl)-1,3a,4,5,10,11a-hexahydro-2H-benzo[b]pyrrolo[2,3-f][1,4]diazocine-2,11(3H)-dione] | 0.90 µM⁻¹ s⁻¹
2 | C=C(CN(C)C)C(=O)NC12CC(CN3C[C@H]4CC(=O)N(c5cc(C(F)(F)F)cc(C)n5)[C@@H]4C(=O)N(C)c4cccc(C)c43)(C1)C2 [Example 184, N-(3-(((3aR,11aS)-6,10-dimethyl-1-(6-methyl-4-(trifluoromethyl)-pyridin-2-yl)-2,11-dioxo-1,2,3,3a,4, 10,11,11a-octa-hydro-5H-benzo [b]pyrrolo[2,3-f] [1,4]diazocin-5-yl)methyl)bicyclo [1.1.1]pentan-1-yl)-2-((dimethyl-amino)methyl)-acrylamide] | 1.33 µM⁻¹ s⁻¹
3 | C=CC(=O)N1CC2(CN(CCN3C[C@H]4CC(=O)N(c5cc(C(F)(F)F)cc(C)n5)[C@@H]4C(=O)N(C)c4cccc(F)c43)C[C@@H](COC)N2)C1 [Example 6, (3aR,11aS)-5-(2-((S)-2-acryloyl-6-(methoxymethyl)-2,5,8-triazaspiro[3.5]nonan-8-yl)ethyl)-6-fluoro-10-methyl-1-(6-methyl-4-(trifluoromethyl)pyridin-2-yl)-1,3a,4,5,10,11a-hexahydro-2H-benzo[b]pyrrolo[2,3-f][1,4]diazocine-2,11(3H)-dione] | 0.54 µM⁻¹ s⁻¹
4 | C=CC(=O)N1CCOC[C@@H]1c1ccc(CN2C[C@H]3CC(=O)N(c4cc(C(F)(F)F)cc(C)n4)[C@@H]3C(=O)N(C)c3cccc(C)c32)cc1 (racemic) [Example 323b, (3aR,11aS)-5-(4-((S/R)-4-acryloyl-morpholin-3-yl)-benzyl)-6,10-dimeth-yl-1-(6-methyl-4-(trifluoromethyl)-pyridin-2-yl)-1,3a,4,5,10,11a-hexahydro-2H-benzo[b]pyrrolo [2,3-f][1,4]diazocine-2,11(3H)-dione] | 0.33 µM⁻¹ s⁻¹
5 | C=CC(=O)N1CCc2cc(CN3C[C@H]4CC(=O)N(c5cc(C(F)(F)F)cc(C)n5)[C@@H]4C(=O)N(C)c4cccc(F)c43)ccc2C1 [Example 131, (3aR,11aS)-5-((2-acryloyl-1,2,3,4-tetrahydoisoquinolin-6-yl)methyl)-6-fluoro-10-methyl-1-(6-methyl-4-(trifluoromethyl)pyridin-2-yl)-1,3a,4,5,10,11a-hexahydro-2H-benzo[b]pyrrolo[2,3-f][1,4]diazocine-2,11(3H)-dione] | 0.53 µM⁻¹ s⁻¹
6 | C=CC(=O)N1Cc2nc(CN3C[C@H]4CC(=O)N(c5cc(C(F)(F)F)cc(C)n5)[C@@H]4C(=O)N(C)c4cccc(C)c43)n(C)c2C1 [Example 241, (3aR,11aS)-5-((5-acryloyl-1-methyl-1,4,5,6-tetrahydropyrrolo[3,4-d]imidazol-2-yl)methyl)-6,10-dimethyl-1-(6-methyl-4-(trifluoromethyl)pyridin-2-yl)-1,3a,4,5,10,11a-hexahydro-2H-benzo[b]pyrrolo[2,3-f][1,4]diazocine-2,11(3H)-dione] | 1.28 µM⁻¹ s⁻¹
7 | C=CC(=O)N1CCC[C@H]1c1nnc(CN2C[C@H]3CC(=O)N(c4cc(C(F)(F)F)cc(C)n4)[C@@H]3C(=O)N(C)c3cccc(C)c32)o1 [Example 273, (3aR,11aS)-5-((5-((S)-1-acryloylpyrrolidin-2-yl)-1,3,4-oxadiazol-2-yl)methyl)-6,10-dimethyl-1-(6-methyl-4-(trifluoromethyl)pyridin-2-yl)-1,3a,4,5,10,11a-hexahydro-2H-benzo[b]pyrrolo[2,3-f][1,4]diazocine-2,11(3H)-dione] | 0.06 µM⁻¹ s⁻¹
8 | C=CC(=O)N1Cc2cc(CN3C[C@H]4CC(=O)N(c5cc(C(F)(F)F)cc(C)n5)[C@@H]4C(=O)N(C)c4cccc(C)c43)cnc2[C@H]1CC#N (racemic) [Example 321b, 2-((R/S)-6-acryloyl-3-(((3aR,11aS)-6,10-dimethyl-1-(6-meth-yl-4-(trifluorometh-yl)pyridin-2-yl)-2,11-dioxo-1,2,3,3a, 4,10,11,11a-octa-hydro-5H-benzo[b]pyrrolo[2,3-f][1,4]diazocin-5-yl)meth-yl)-6,7-dihydro-5H-pyrrolo[3,4-b]pyr-idin-7-yl)acetonitrile] | 0.69 µM⁻¹ s⁻¹
9 | Cc1cc(C(F)(F)F)cc(N2C(=O)C[C@@H]3CN(CCCCCNC(=O)/C=C/CN(C)C)c4c(C)cccc4N(C)C(=O)[C@H]32)n1 [Example 83, (E)-N-(5-((3aR,11aS)-6,10-dimethyl-1-(6-methyl-4-(trifluoromethyl)pyridin-2-yl)-2,11-dioxo-1,2,3,3a,4,10,11,11a-octahydro-5H-benzo[b]pyrrolo[2,3-f][1,4]diazocin-5-yl)pentyl)-4-(dimethylamino)but-2-enamide] | 0.62 µM⁻¹ s⁻¹
10 | C=CC(=O)N1Cc2cc(CN3C[C@H]4CC(=O)N(c5cc(C(F)(F)F)cc(C)n5)[C@@H]4C(=O)N(C)c4cccc(Cl)c43)cnc2C1COC (mixture of isomers) [Example 236, (3aR,11aS)-5-(((S/R)-6-acryloyl-7-(methoxymethyl)-6,7-dihydro-5H-pyrrolo[3,4-b]pyridin-3-yl)methyl)-6-chloro-10-methyl-1-(6-methyl-4-(trifluoromethyl)pyridin-2-yl)-1,3a,4,5,10,11a-hexahydro-2H-benzo[b]pyrrolo[2,3-f][1,4]diazocine-2,11(3H)-dione] | 1.24 µM⁻¹ s⁻¹
11 | Cc1cc(C(F)(F)F)cc(N2C(=O)C[C@@H]3CN(Cc4cc(F)c(NC(=O)/C=C/CN(C)C)c(F)c4)c4c(Cl)cccc4N(C)C(=O)[C@H]32)n1 [Example 309, (E)-N-(4-(((3aR,11aS)-6-chloro-10-methyl-1-(6-methyl-4-(trifluoromethyl)pyridin-2-yl)-2,11-dioxo-1,2,3,3a,4,10,11,11a-octahydro-5H-benzo[b]pyrrolo[2,3-f][1,4]diazocin-5-yl)methyl)-2,6-difluorophenyl)-4-(dimethylamino)but-2-enamide] | 1.02 µM⁻¹ s⁻¹
12 | C=CC(=O)N1CC(N2CCC(CN3C[C@H]4CC(=O)N(c5cc(C(F)(F)F)cc(C)n5)[C@@H]4C(=O)N(C)c4cccc(Cl)c43)C(O)C2)C1 (stereo partly drawn) [Example 96, (3aR,11aS)-5-((1-(1-acryloylazetidin-3-yl)-3-hydroxypiperidin-4-yl)methyl)-6-chloro-10-methyl-1-(6-methyl-4-(trifluoromethyl)pyridin-2-yl)-1,3a,4,5,10,11a-hexahydro-2H-benzo[b]pyrrolo[2,3-f][1,4]diazocine-2,11(3H)-dione] | 0.81 µM⁻¹ s⁻¹
13 | C=C(CN(C)C)C(=O)N1CCC[C@@H]1c1ccc(CN2C[C@H]3CC(=O)N(c4cc(C(F)(F)F)cc(C)n4)[C@@H]3C(=O)N(C)c3cccc(F)c32)cc1 (racemic) [Example 171a, (3aR,11aS)-5-(4-((R/S)-1-(2-((di-methylamino)-methyl)acryloyl)-pyrrolidin-2-yl)-benzyl)-6-fluoro-10-methyl-1-(6-methyl-4-(tri-fluoromethyl)-pyridin-2-yl)-1,3a,4,5,10,11a-hexahydro-2H-benzo[b]pyrrolo [2,3-f][1,4]diazo-cine-2,11(3H)-dione] | 2.29 µM⁻¹ s⁻¹
14 | C=CC(=O)N1CC(N2CC[C@@H](CN3C[C@H]4CC(=O)N(c5cc(C(F)(F)F)cc(C)n5)[C@@H]4C(=O)N(C)c4cccc(Cl)c43)[C@H](C#N)C2)C1 (single isomer, unassigned) [Example 226a] | 0.23 µM⁻¹ s⁻¹
15 | C=CC(=O)N1CC[C@@H]1c1nnc(CN2C[C@H]3CC(=O)N(c4cc(C(F)(F)F)cc(C)n4)[C@@H]3C(=O)N(C)c3cccc(C)c32)o1 [Example 274, (3aR,11aS)-5-((5-((R)-1-acryloylazetidin-2-yl)-1,3,4-oxadiazol-2-yl)methyl)-6,10-dimethyl-1-(6-methyl-4-(trifluoromethyl)pyridin-2-yl)-1,3a,4,5,10,11a-hexahydro-2H-benzo[b]pyrrolo[2,3-f][1,4]diazocine-2,11(3H)-dione] | 0.47 µM⁻¹ s⁻¹
16 | C=C(CN(C)C)C(=O)N1CC(COCCN2C[C@H]3CC(=O)N(c4cc(C(F)(F)F)cc(C)n4)[C@@H]3C(=O)N(C)c3cccc(Cl)c32)C1 [Example 162, (3aR,11aS)-6-chloro-5-(2-((1-(2-((dimethylamino)methyl)acryloyl)azetidin-3-yl)methoxy)ethyl)-10-methyl-1-(6-methyl-4-(trifluoromethyl)pyridin-2-yl)-1,3a,4,5,10,11a-hexahydro-2H-benzo[b]pyrrolo[2,3-f][1,4]diazocine-2,11(3H)-dione] | 2.95 µM⁻¹ s⁻¹

— patent US20250230165A1, “HETEROCYCLIC COMPOUNDS FOR USE IN THE TREATMENT OF CANCER” (ARTIOS PHARMA LIMITED, priority 2021, published 2025)
